“And” between values parts separate entries of the source, which are not always exact repeats. Identical values can stand only once. “Also recorded” adds a separate entry of the source.
Tests used:
[1] = system: Nadorcott (mandarin); assay: Field treatment by tractor on entire rows of adult trees, seeds; type: in vivo; details: scale Field
Excerpt: Field: treatments by tractor on entire rows of adult trees.

[2] = system: flowers of the Nadorcott mandarin; assay: Action over time, pre-pollination treatment of flowers, seeds in fruit; type: in vivo; details: flowers treated, then pollinated D0 to D9; positive control 4.67 seeds
Procedure: (§1) In order to study the action over time of the product, two experiments were carried out on the flowers of the Nadorcott mandarin, one pre-pollination and the other post-pollination. In the pre-pollination experiment 300 flowers were treated with the product of the invention (S8) and subsequently pollinated in batches. One batch was pollinated on the same day (D0) and another batch the following day (D1), and so on successively until D9.

[3] = system: lemons Citrus limon L. Burm. f.; assay: Treatment of individual pollinated flowers, pollen tubes in the stigma; type: in vivo
Procedure: (§2) Flower: treatment on individual flowers and microscopic observation of fluorescence. In this case the presence or absence of pollen tubes (PT) in the stigma was assessed as was their percentage reduction compared to positive controls. […] C+=Positive control=flower pollinated but NOT treated with the active product; PT=Pollen tubes (fluorescent fibres); AP=Active product.

[4] = system: Nadorcott (mandarin); assay: as above; type: in vivo
Procedure: as §2

[5] = system: clementine fina Citrus clementine hort. Ex Tanaka; assay: as above; type: in vivo
Procedure: as §2

[6] = system: Nova. C. clementine x [C.paradisi x C.tangerina]; assay: as above; type: in vivo
Procedure: as §2

[7] = system: Mexican lime; assay: as above; type: in vivo
Procedure: as §2

[8] = system: Murcott Citrus reticulata White; assay: as above; type: in vivo
Procedure: as §2

[9] = system: clemenules Citrus clementine hort. Ex Tanaka; assay: as above; type: in vivo
Procedure: as §2

[10] = system: watermelons Citrullus lanatus (Thunb.) Matsum. & Nakai; assay: Treatment of individual flowers, pollen tubes in the stigma; type: in vivo
Procedure: as §2, with “controls. Fruit: treatment of individual flowers and subsequent observation of the fruit formed from the treated flower.” for “controls.”

[11] = system: pollen grains; assay: Germination of pollen grains on Petri dishes; type: cell-based; details: assessed after 72 hours
Procedure: The action of the product on the germination of pollen grains was studied. To that end, pollen grains were sown on Petri dishes in laboratory conditions to which growing medium increasing concentrations of the active product (S8) were added. After 72 hours they were assessed and the number of germinated pollen grains were counted on each Petri dish.
A non-toxic, neutral product (sample), KNO3 was used for comparing the results with those obtained from the active product (AP).

[12] = system: stigma papilla cells of mandarin flower; assay: Microscopy of stigma treated with sulphur only or gibberellic acid only; type: in vivo; details: for state of stigma papilla cells (semi-thin cut): mandarin stigma treated with a single component only; for pollen tubes in the stigma of pollinated mandarin flower (fluorescence microscope): treated with a single component only
Excerpt: The active ingredient sulphur, preferably in the form of an octatomic molecule (S8), is responsible for preventing the formation of seeds through the alteration of papilla cells of the stigma, whilst the GA is responsible for re-establishing the stimuli needed for the formation of the fruit, thus preventing a possible reduction in yield. The need for GA will depend on each crop and its parthenocarpic capacity. […] This mechanism is substantially due to the effect of sulphur. […] The effect of the active ingredient (sulphur) and gibberellic acid (GA) on papilla cells can be compared separately in FIGS. 6 and 7 through semi-thin microscope cuts.

[13] = system: grapes Vitis vinifera L.; assay: Treatment of individual pollinated flowers, pollen tubes in the stigma by fluorescence microscopy; type: in vivo
Procedure: as §2

[14] = system: aubergines Solanum melongena L.; assay: Treatment of individual flowers, fruit seeds and pollen tubes in the stigma; type: in vivo
Excerpt: (§3) Fruit: treatment of individual flowers and subsequent observation of the fruit formed from the treated flower. […] C+=Positive control=flower pollinated but NOT treated with the active product; PT=Pollen tubes (fluorescent fibres); AP=Active product.

[15] = system: Sweet orange; assay: Treatment of individual pollinated flowers, pollen tubes in the stigma; type: in vivo, orange tree
Procedure: as §2

[16] = system: Grapefruit; assay: as above; type: in vivo, grapefruit tree
Procedure: as §2

[17] = system: adult trees of the Nadorcott mandarin variety; assay: Phyto-toxicity on sprayed adult trees (chlorosis, necrosis, defoliation); type: in vivo; details: recommended concentrations (below 4%); listed as active product
Procedure: Phyto-toxicity tests were performed on adult trees of the Nadorcott mandarin variety. The trees were sprayed with different concentrations of the active product (S8). The level of affection on chlorosis, necrosis and defoliation was assessed, on a scale of 1 to 6, with 1 being very low and 6 being very high.

[18] = system: common bumblebee (Bombus sp.); assay: Effects on pollinators, laboratory mortality test; type: in vivo; details: for toxicity classification for bumblebees / pollinators: international scale: non-toxic = acute LD50 >100 μg/bee
[19] = system: flowers of the Nadorcott mandarin; assay: Action over time, post-pollination treatment of flowers, seeds in fruit; type: in vivo
Procedure: as §1, with “D9. In the post-pollination experiment 360 flowers were first pollinated. In this case, after first having been pollinated a batch was treated with the product on the same day (D0), another batch the following day (D1) and so on successively until day 9 (D9).” for “D9.”

[20] = system: Nadorcott variety (mandarin); assay: Treatment of entire trees, number of seeds in the fruit; type: in vivo
[21] = system: cucumber fruit Cucumis sativus L.; assay: Treatment of individual flowers, observation of the fruit formed (seeds); type: in vivo; details: scale Fruit
Excerpt: as §3

[22] = purified powder; cited from earlier work
[23] = system: mandarin; details: literature [1,2]; cited from earlier work

## S1SSSSSSS1 [(S8), sulphur (S) as an octatomic molecule (S8)]
[1]
  red. of seeds: =81% red. of seeds
[2]
  seeds in fruit after pre-pollination treatment: did not present a single seed
[3]; Lemon, scale Flower
  red. of PT: =100% red. of PT (FIG. 17A and 17B)
[3]; lemon
  pollen tubes in treated stigma (fluorescence image): without PT
[4]; Nadorcott, scale Flower
  red. of PT: =100% red. of PT
[4]; direct application on the flower
  efficiencies when applied directly on the flower: 95-100%
[5]; Fina, scale Flower
  red. of PT: =100% red. of PT (FIG. 14A and 14B)
[5]; clementine fina
  pollen tubes in treated stigma (fluorescence image): without PT
[6]; Nova
  pollen tubes in treated stigma (fluorescence image): without PT
[6]; Nova (tangelo), scale Flower
  red. of PT: =100% red. of PT (FIG. 16A and 16B)
[7]
  pollen tubes in treated pollinated flowers (fluorescence image): No visible PT
[7]; scale Flower
  red. of PT: =100% red. of PT (FIG. 20)
[8]
  pollen tubes in treated stigma (fluorescence image): without PT
[8]; scale Flower
  red. of PT: =100% red. of PT (FIG. 15A and 15B)
[9]; Clemenules, scale Flower
  red. of PT: =100% red. of PT (FIG. 13A and 13B)
[9]; clemenules
  pollen tubes in treated stigma (fluorescence image): without PT
[10]; Watermelon, scale printed Fruit
  red. of PT: =100% red. of PT (FIG. 12A and 12B)
[10]; watermelon
  pollen tubes in treated stigma (fluorescence image): without PT
[11]
  concentration at which inhibition of pollen grain germination is total: 2000 mg/L
[12]; TEM, crop not stated
  state of stigma papilla cell (TEM): lost turgidity and part of its components and appears collapsed
[12]
  state of stigma papilla cells (semi-thin cut): damaged
[12]; listed as active ingredient (sulphur)
  state of stigma papilla cells (semi-thin cut): damaged stigma, without turgidity
[12]; listed as active ingredient (S8)
  pollen tubes in the stigma of pollinated mandarin flower (fluorescence microscope): without pollen tubes; also recorded: no pollen tubes in the stigmatic area
[13]; Vid, scale Flower, vs positive control
  red. of PT: =100% red. of PT (FIG. 9A and 9B)
[13]; grape, pollinated flower
  pollen tubes in treated stigma (fluorescence image): without PT
[14]; Aubergine, scale Fruit
  red. seeds: =100% red. seeds (FIG. 11A and 11B)
[14]; aubergine
  pollen tubes in treated stigma (fluorescence image): without PT
[15]; Sweet orange, scale Flower
  red. of PT: =100% red. of PT (FIG. 18)
[15]; orange tree
  pollen tubes in treated pollinated flowers (fluorescence image): No visible PT
[16]; Grapefruit, scale Flower
  red. of PT: =100% red. of PT (FIG. 19)
[16]; grapefruit tree
  pollen tubes in treated pollinated flowers (fluorescence image): No visible PT
[17]
  phyto-toxicity (chlorosis, necrosis, defoliation): does not produce necrosis, chlorosis or defoliation; also recorded: not phyto-toxic
[18]; bumblebees, at 48 h
  mortality rate: 50%
[18]; listed as active ingredient
  toxicity classification for bumblebees / pollinators: non-toxic
[18]; listed as active product
  toxicity classification for bumblebees / pollinators: non-toxic for pollinator insects
[19]; treated D0 to D3 after pollination, positive control 4.7 seeds
  seeds prevented, post-pollination treatment: 100%
[19]; treated D4-D9 after pollination
  seeds prevented, post-pollination treatment: approximately 50%
[20]; Nadorcott, scale Tree
  red. of seeds: ~85%
[20]; entire Nadorcott trees, six experimental products compared
  reduction of the average number of seeds compared to the positive control (in words): only one to significantly reduce the average number of seeds
[20]; entire Nadorcott trees, about 120 fruits per treatment, positive control C+ 3.3, listed as T1
  mean number of seeds in the fruit: 0.4 and 0.4083
[21]
  red. seeds: =100% red. seeds (FIG. 10A and 10B)

## C=C1C[C@]23C[C@@]1(O)CC[C@H]2[C@@]12C=C[C@H](O)[C@@](C)(C(=O)O1)[C@H]2[C@@H]3C(=O)O [GA, gibberellic acid, reference compound]
[22]
  solubility in ethanol: soluble in ethanol
  solubility in water: somewhat soluble in water
[12]
  state of stigma papilla cells (semi-thin cut): intact, functional and turgid
  pollen tubes in the stigma of pollinated mandarin flower (fluorescence microscope): developed pollen tubes can be clearly observed
[12]; listed as gibberellic acid
  state of stigma papilla cells (semi-thin cut): good, functional and turgid
  pollen tubes in the stigma of pollinated mandarin flower (fluorescence microscope): presence of pollen tubes inside the stigma can be clearly seen
[23]
  effectiveness for reducing the number of seeds in real field conditions (in words): not effective for reducing the number of seeds

## O=[N+]([O-])[O-].[K+] [Treatment T3, potassium nitrate, reference compound]
[20]; in vivo
  mean number of seeds in the fruit: 3.333

## OC[C@H]1O[C@@](CO)(O[C@H]2O[C@H](CO)[C@@H](O)[C@H](O)[C@H]2O)[C@@H](O)[C@@H]1O [Treatment T6, sucrose, reference compound]
[20]; entire Nadorcott trees, about 120 fruits per treatment, positive control C+ 3.3
  mean number of seeds in the fruit: 3.183

From patent publication US20220346381A1, “COMPOSITION FOR PREVENTING THE FORMATION OF SEEDS IN FRUIT” (ASOCIACION CLUB DE VARIEDADES VEGETALES PROTEGIDAS, priority 2019, published 2022)
